What was measured:
Type in all cases: biochemical
Details in all cases: inhibit 50% of activity at 50 μM
[1] = target: T1, JAK1 (Homo sapiens, UniProt P23458); experiment: JAK1 kinase domain capture-based ELISA kinase assay
T1 construct: The kinase domain of humanJAK1 was amplified from U937mRNA; His tag (from pFastBac HTb vector; nickel chelate purification) (N); made in house; host or cells: baculovirus; virus made in Sf9, large-scale expression in High Five insect cells
Description: (§1) For screening purposes, compounds were diluted in 96 well plates at a concentration of 50 μM or 20 μM. Plates were warmed at 37° C. for 30 minutes before assay.
The kinase domain of humanJAK1 was amplified from U937mRNA using the polymerase chain reaction with the following primers: […]
JAK1 PCR products were cloned into the pFastBac HTb expression vector (Gibco) via the Xho I and Kpn I sites. The JAK1 plasmid was then transformed into competent DH10Bac cells (Gibco), and the recombinant baculovirus produced prepared for transfection into Sf9 insect cells.
(§2) Baculovirus preparations from each of the JAK family members were infected into five litres of High Five cells (Invitrogen) grown in High Five serum free medium (Invitrogen) to a cell density of approximately 1-2×10^6 cells/ml. Cells are infected with virus at a MOI of 0.8-3.0. Cells were harvested and lysed. JAK kinase domains were purified by affinity chromatography on a Probond (Invitrogen) nickel chelate affinity column.
(§3) The biotinylated substrate biotin-EGPWLEEEEEAYGWMDF-NH2 (SEQ ID NO:9) (final concentration 5 μM) was used as substrate, and tyrosine phosphorylation was quantitated following transfer to an avidin coated ELISA plate using peroxidase-linked anti-phospho-tyrosine antibody PY20.
(§4) Inhibitors were added to the assays fifteen minutes prior to the addition of ATP. Inhibitors were added in aqueous DMSO, with DMSO concentrations never exceeding 1%.

[2] = target: T2, JAK2 (Homo sapiens, UniProt O60674); experiment: JAK2 kinase domain capture-based ELISA kinase assay
T2 construct: The kinase domain of humanJAK2 was amplified from U937mRNA; His tag (from pFastBac HTc vector; nickel chelate purification) (N); made in house; host or cells: baculovirus; virus made in Sf9, large-scale expression in High Five insect cells
Description: as §1
The kinase domain of humanJAK2 was amplified from U937mRNA using the polymerase chain reaction with the following primers: […]
JAK2 PCR products were cloned into the pFastBac HTc expression vector (Gibco) via the Sal I and Not I sites. The JAK2 plasmid was then transformed into competent DH10Bac cells (Gibco), and the recombinant baculovirus produced prepared for transfection into Sf9 insect cells.
as §2, §3, §4

[3] = target: T3, JAK3 (Homo sapiens, UniProt P52333); experiment: JAK3 kinase domain capture-based ELISA kinase assay
T3 construct: The kinase domain of humanJAK3 was amplified from U937mRNA; His tag (from pFastBac HTb vector; nickel chelate purification) (N); made in house; host or cells: baculovirus; virus made in Sf9, large-scale expression in High Five insect cells
Description: as §1
The kinase domain of humanJAK3 was amplified from U937mRNA using the polymerase chain reaction with the following primers: […]
JAK3 PCR products were cloned into the pFastBac HTb expression vector (Gibco) via the Xho I and Kpn I sites. The JAK3 plasmid was then transformed into competent DH10Bac cells (Gibco), and the recombinant baculovirus produced prepared for transfection into Sf9 insect cells.
as §2, §3, §4

[4] = target: T4, TYK2 (Homo sapiens, UniProt P29597); experiment: TYK2 kinase domain capture-based ELISA kinase assay
T4 construct: The kinase domain of humanTYK2 was amplified from A549 mRNA; His tag (from pBlueBacHis2A vector; nickel chelate purification) (N); made in house; host or cells: baculovirus; virus made in Sf9, large-scale expression in High Five insect cells
T4 sequence (P29597 897-1176 limits assumed): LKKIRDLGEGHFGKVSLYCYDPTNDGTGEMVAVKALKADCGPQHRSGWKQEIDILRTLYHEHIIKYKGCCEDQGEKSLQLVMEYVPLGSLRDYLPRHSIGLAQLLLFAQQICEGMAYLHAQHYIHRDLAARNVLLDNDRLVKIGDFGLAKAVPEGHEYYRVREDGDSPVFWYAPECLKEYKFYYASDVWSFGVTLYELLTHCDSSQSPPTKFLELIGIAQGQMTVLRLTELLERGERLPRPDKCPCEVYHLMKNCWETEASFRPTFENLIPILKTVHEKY
Description: as §1
The kinase domain of humanTYK2 was amplified from A549 mRNA using the polymerase chain reaction with the following primers: […]
TYK2 PCR products were cloned into pBlueBacHis2A (Invitrogen) via the EcoRI site. The recombinant TYK2 baculovirus produced was prepared for transfected into Sf9 insect cells.
as §2, §3, §4

T2 sequence (O60674 849-1124 limits assumed): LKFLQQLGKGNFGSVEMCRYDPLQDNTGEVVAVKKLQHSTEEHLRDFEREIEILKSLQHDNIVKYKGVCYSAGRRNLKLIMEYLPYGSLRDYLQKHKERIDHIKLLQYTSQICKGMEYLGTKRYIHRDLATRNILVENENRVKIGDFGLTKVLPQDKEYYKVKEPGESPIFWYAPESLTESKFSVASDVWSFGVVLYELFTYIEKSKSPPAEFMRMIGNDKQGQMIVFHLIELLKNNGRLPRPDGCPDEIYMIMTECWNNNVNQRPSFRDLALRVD
T1 sequence (P23458 875-1153 limits assumed): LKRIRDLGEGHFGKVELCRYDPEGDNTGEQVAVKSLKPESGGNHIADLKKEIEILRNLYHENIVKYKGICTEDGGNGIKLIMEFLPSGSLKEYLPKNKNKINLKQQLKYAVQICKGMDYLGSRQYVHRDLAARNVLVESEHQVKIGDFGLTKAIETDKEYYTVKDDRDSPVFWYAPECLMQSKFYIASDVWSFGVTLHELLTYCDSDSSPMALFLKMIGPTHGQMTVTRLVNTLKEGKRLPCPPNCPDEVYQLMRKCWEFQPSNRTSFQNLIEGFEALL
T3 sequence (P52333 822-1111 limits assumed): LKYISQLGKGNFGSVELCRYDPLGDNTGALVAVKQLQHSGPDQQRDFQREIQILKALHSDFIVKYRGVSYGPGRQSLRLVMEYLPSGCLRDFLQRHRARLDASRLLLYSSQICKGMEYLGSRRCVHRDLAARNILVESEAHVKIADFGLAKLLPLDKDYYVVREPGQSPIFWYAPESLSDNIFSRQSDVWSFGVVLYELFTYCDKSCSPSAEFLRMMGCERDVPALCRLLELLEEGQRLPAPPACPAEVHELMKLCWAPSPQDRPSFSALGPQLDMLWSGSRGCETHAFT

Row | Structure (SMILES) | IC50 ([1]; Table 3) [µM] | IC50 ([2]; Table 3) [µM] | IC50 ([3]; Table 3) [µM] | IC50 ([4]; Table 3) [µM] | also measured
1 | FC(F)C(F)(F)Oc1cccc(Nc2nc(-c3cc(C(F)(F)F)cc(C(F)(F)F)c3)cn3ccnc23)c1 | – | – | – | – | IC50 ([1]; Table 6): < 50 µM; IC50 ([2]; Table 6): > 50 µM; IC50 ([3]; Table 6): > 50 µM; IC50 ([4]; Table 6): > 50 µM
2 | CCN(CCO)c1ccc(Nc2nc(-c3ccccc3)cn3ccnc23)cc1 | – | – | – | – | IC50 ([1]; Table 6): < 50 µM; IC50 ([2]; Table 6): < 50 µM; IC50 ([3]; Table 6): < 50 µM; IC50 ([4]; Table 6): < 50 µM
3 | CN(C)C(=O)COc1cccc(Nc2nc(-c3ccccc3)cn3ccnc23)c1 | – | – | – | – | IC50 ([1]; Table 6): < 50 µM; IC50 ([2]; Table 6): < 50 µM; IC50 ([3]; Table 6): > 50 µM; IC50 ([4]; Table 6): < 50 µM
4 | CCN(CCO)c1ccc(Nc2nc(-c3ccccc3Cl)cn3ccnc23)cc1 | – | – | – | – | IC50 ([1]; Table 6): < 50 µM; IC50 ([2]; Table 6): < 50 µM; IC50 ([3]; Table 6): < 50 µM; IC50 ([4]; Table 6): < 50 µM
5 | CN(C)C(=O)COc1cccc(Nc2nc(-c3ccccc3Cl)cn3ccnc23)c1 | – | – | – | – | IC50 ([1]; Table 6): < 50 µM; IC50 ([2]; Table 6): < 50 µM; IC50 ([3]; Table 6): < 50 µM; IC50 ([4]; Table 6): < 50 µM
6 | CCN(CCO)c1ccc(Nc2nc(-c3ccc(F)c(Cl)c3)cn3ccnc23)cc1 | – | – | – | – | IC50 ([1]; Table 6): < 50 µM; IC50 ([2]; Table 6): < 50 µM; IC50 ([3]; Table 6): > 50 µM; IC50 ([4]; Table 6): < 50 µM
7 | Fc1ccc(-c2cncc(N3CCN(CCN4CCCC4)CC3)n2)cc1Cl [CY734702] | < 50 | < 50 | < 50 | < 50 | –
8 | COc1cccc(-c2cccc(N3CCN(C)CC3)n2)c1 [CYT13809] | < 50 | < 50 | < 50 | < 50 | –
9 | COc1cncc(-c2cccc(Nc3cccnc3)n2)c1 [CYT14607] | < 50 | < 50 | < 50 | < 50 | –
10 | c1cncc(Nc2cccc(-c3ccncc3)n2)c1 [CYT14804] | < 50 | < 50 | < 50 | < 50 | –
11 | COc1cncc(-c2cncc(NCc3cccs3)n2)c1 [CYT20303] | < 50 | < 50 | < 50 | < 50 | –
12 | Fc1ccc(CNc2cncc(-c3cccnc3)n2)cc1 [CYT20307] | < 50 | < 50 | < 50 | < 50 | –
13 | CC(=O)Nc1cccc(-c2cncc(NCc3cccc(Cl)c3)n2)c1 [CYT20310] | < 50 | < 50 | < 50 | < 50 | –
14 | COc1cncc(-c2cncc(NCc3ccco3)n2)c1 [CYT20406] | < 50 | < 50 | < 50 | < 50 | –
15 | C[C@H](Nc1cncc(-c2cccc(CO)c2)n1)c1ccccc1 [CYT20504] | < 50 | < 50 | < 50 | < 50 | –
16 | OCc1cccc(-c2cncc(NCc3ccccc3)n2)c1 [CYT20506] | < 50 | < 50 | < 50 | < 50 | –
17 | CC(=O)Nc1cccc(-c2cncc(N[C@@H](C)c3ccccc3)n2)c1 [CYT20508] | < 50 | < 50 | < 50 | < 50 | –
18 | COc1cc(-c2cncc(N[C@@H](C)c3ccccc3)n2)cc(OC)c1OC [CYT20510] | < 50 | < 50 | < 50 | < 50 | –
19 | COc1cncc(-c2cncc(NCC(C)(C)CO)n2)c1 [CYT21103] | < 50 | < 50 | < 50 | < 50 | –
20 | COc1cc(-c2cncc(NCCc3ccncc3)n2)cc(OC)c1OC [CYT21404] | < 50 | < 50 | < 50 | < 50 | –
21 | COc1cncc(-c2cncc(N[C@H](CO)C(C)C)n2)c1 [CYT21507] | < 50 | < 50 | < 50 | < 50 | –

Row | Structure (SMILES) | IC50 ([1]; Table 3) [µM] | IC50 ([2]; Table 3) [µM] | IC50 ([3]; Table 3) [µM] | IC50 ([4]; Table 3) [µM] | also measured
22 | COc1cncc(-c2cncc(NCc3ccc(F)cc3)n2)c1 [CYT24108] | < 50 | < 50 | < 50 | < 50 | –
23 | COc1cncc(-c2cncc(N[C@@H](C)c3ccccc3)n2)c1 [CYT24510] | < 50 | < 50 | < 50 | < 50 | –
24 | COc1cncc(-c2cncc(NCc3ccccc3)n2)c1 [CYT24605] | < 50 | < 50 | < 50 | < 50 | –
25 | c1ccc(CNc2cncc(-c3cccnc3)n2)cc1 [CYT24803] | < 50 | < 50 | < 50 | < 50 | –
26 | COc1cc(-c2cncc(NCc3ccccc3)n2)cc(OC)c1OC [CYT25209] | < 50 | < 50 | < 50 | < 50 | –
27 | OCc1ccccc1-c1cncc(NCc2ccccc2)n1 [CYT25210] | < 50 | < 50 | < 50 | < 50 | –
28 | COc1cc(-c2cncc(NCCO)n2)cc(OC)c1OC [CYT28608] | < 50 | < 50 | < 50 | < 50 | –
29 | C[C@@H](Nc1cncc(-c2cccc(N)c2)n1)c1ccccc1 [CYT31106] | < 50 | < 50 | < 50 | < 50 | –
30 | CC(=O)Nc1cccc(-c2cncc(N[C@H](C)c3ccccc3)n2)c1 [CYT32102] | < 50 | < 50 | < 50 | < 50 | –
31 | COc1cc(-c2cncc(N[C@H](C)c3ccccc3)n2)cc(OC)c1OC [CYT32107] | < 50 | < 50 | < 50 | < 50 | –
32 | COc1cc(-c2cncc(Nc3ccc(C#N)cc3)n2)cc(OC)c1OC [CYT32302] | < 50 | < 50 | < 50 | < 50 | –
33 | Oc1ccc(-c2cncc(N3CCN(Cc4ccccn4)CC3)n2)cc1 [CYT32602] | < 50 | < 50 | < 50 | < 50 | –
34 | COc1ccc(N2CCN(c3cncc(-c4ccc(CC(N)C(=O)O)cc4)n3)CC2)cc1OC (centres unmarked) [CYT34205] | < 50 | < 50 | < 50 | < 50 | –
35 | CN(C)CCNC(=O)c1cccc(-c2cncc(N3CCN(c4ccccc4C#N)CC3)n2)c1 [CYT34503] | < 50 | < 50 | < 50 | < 50 | –
36 | c1cc(-c2cn3ccnc3c(Nc3ccc(N4CCOCC4)cc3)n2)ccn1 [drawing 61] | – | – | – | – | IC50 ([1]; Table 5): < 50 µM; IC50 ([2]; Table 5): < 50 µM; IC50 ([3]; Table 5): < 50 µM; IC50 ([4]; Table 5): < 50 µM
37 | c1cncc(-c2cn3ccnc3c(Nc3ccc(N4CCOCC4)cc3)n2)c1 [drawing 62] | – | – | – | – | IC50 ([1]; Table 5): < 50 µM; IC50 ([2]; Table 5): < 50 µM; IC50 ([3]; Table 5): < 50 µM; IC50 ([4]; Table 5): < 50 µM
38 | OCc1ccccc1-c1cn2ccnc2c(Nc2ccc(N3CCOCC3)cc2)n1 [drawing 64] | – | – | – | – | IC50 ([1]; Table 5): < 50 µM; IC50 ([2]; Table 5): < 50 µM; IC50 ([3]; Table 5): < 50 µM; IC50 ([4]; Table 5): < 50 µM
39 | CCN(CCO)c1ccc(Nc2nc(-c3cccc4ccccc34)cn3ccnc23)cc1 [drawing 68] | – | – | – | – | IC50 ([1]; Table 5): < 50 µM; IC50 ([2]; Table 5): < 50 µM; IC50 ([3]; Table 5): < 50 µM; IC50 ([4]; Table 5): < 50 µM
40 | CCN(CCO)c1ccc(Nc2nc(-c3ccccc3CO)cn3ccnc23)cc1 [drawing 69] | – | – | – | – | IC50 ([1]; Table 5): < 50 µM; IC50 ([2]; Table 5): < 50 µM; IC50 ([3]; Table 5): < 50 µM; IC50 ([4]; Table 5): < 50 µM
41 | Nc1cccc(-c2cn3ccnc3c(Nc3ccccc3)n2)c1 [drawing 71] | – | – | – | – | IC50 ([1]; Table 5): < 50 µM; IC50 ([2]; Table 5): < 50 µM; IC50 ([3]; Table 5): < 50 µM; IC50 ([4]; Table 5): < 50 µM

— patent US20060069084A1, “Methods of inhibiting kinases” (priority 2001, published 2006)
